Toxic doses and inconclusive results are not listed. Rule as the data show it: active = T/C of 150% or more; inactive = T/C below 125%.
Tested on: L1210 leukemia ip in BDF1 mice, survival T/C
Assay: NCI In Vivo Anticancer Drug Screen. Data for tumor model L1210 Leukemia (intraperitoneal) in B6D2F1 (BDF1) mice
Conditions: endpoint: mean survival time, higher = longer survival
Method in brief: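 Transplantable tumor model; survival measured in treated vs vehicle control mice. Value = treated/control.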

[1] = dose: 100.0 mg/kg/injection, schedule: Q01DX009 (ip), vehicle: Klucel (hydroxypropylcellulose) (HPC)
[2] = dose: 100.0 mg/kg/injection, schedule: Q04DX003 (ip), vehicle: Klucel (hydroxypropylcellulose) (HPC)
[3] = dose: 200.0 mg/kg/injection, schedule: Q04DX003 (ip), vehicle: Klucel (hydroxypropylcellulose) (HPC)
[4] = dose: 400.0 mg/kg/injection, schedule: Q04DX003 (ip), vehicle: Klucel (hydroxypropylcellulose) (HPC)
[5] = dose: 100.0 mg/kg/injection, schedule: Q01DX009 (ip), vehicle: saline with Tween-80
[6] = dose: 200.0 mg/kg/injection, schedule: Q01DX009 (ip), vehicle: saline with Tween-80
[7] = dose: 400.0 mg/kg/injection, schedule: Q01DX009 (ip), vehicle: saline with Tween-80
[8] = dose: 75.0 mg/kg/injection, schedule: Q04DX003 (ip), vehicle: saline
[9] = dose: 150.0 mg/kg/injection, schedule: Q04DX003 (ip), vehicle: saline
[10] = dose: 100.0 mg/kg/injection, schedule: Q01DX001 (ip), vehicle: saline
[11] = dose: 200.0 mg/kg/injection, schedule: Q01DX001 (ip), vehicle: saline
[12] = dose: 400.0 mg/kg/injection, schedule: Q01DX001 (ip), vehicle: saline
[13] = dose: 100.0 mg/kg/injection, schedule: Q04DX003 (ip), vehicle: saline with Tween-80
[14] = dose: 200.0 mg/kg/injection, schedule: Q04DX003 (ip), vehicle: saline with Tween-80
[15] = dose: 400.0 mg/kg/injection, schedule: Q04DX003 (ip), vehicle: saline with Tween-80

Measured: T/C

CCOc1ccc(OCC)c2c1C(=O)c1ccccc1C2=O
inactive: [1] 97 % of control | [2] 95 % of control | dose: 200.0 mg/kg/injection, schedule: Q01DX009 (ip), vehicle: Klucel (hydroxypropylcellulose) (HPC) 100 % of control | [3] 100 % of control | dose: 400.0 mg/kg/injection, schedule: Q01DX009 (ip), vehicle: Klucel (hydroxypropylcellulose) (HPC) 97 % of control | [4] 97 % of control

CCOC(=O)C1CCCCN1 (stereo not drawn)
inactive: dose: 75.0 mg/kg/injection, schedule: Q01DX001 (ip), vehicle: saline 91 % of control | dose: 150.0 mg/kg/injection, schedule: Q01DX001 (ip), vehicle: saline 91 % of control

Nc1cc(Cl)ccc1N1CCCCC1
inactive: [5] 114 % of control | [6] 97 % of control | [7] 106 % of control

NC(=O)NOC(=O)c1ccccc1
inactive: dose: 50.0 mg/kg/injection, schedule: Q01DX Z (ip), vehicle: other 103 % of control | dose: 100.0 mg/kg/injection, schedule: Q01DX Z (ip), vehicle: other 103 % of control | dose: 450.0 mg/kg/injection, schedule: Q01DX Z (ip), vehicle: other 111 % of control | dose: 600.0 mg/kg/injection, schedule: Q01DX Z (ip), vehicle: other 112 % of control

CC(C)=NOS(=O)(=O)c1ccc(C)cc1
inactive: dose: 75.0 mg/kg/injection, schedule: Q01DX009 (ip), vehicle: saline 103 % of control | [8] 88 % of control | dose: 150.0 mg/kg/injection, schedule: Q01DX009 (ip), vehicle: saline 98 % of control | [9] 92 % of control | dose: 300.0 mg/kg/injection, schedule: Q01DX009 (ip), vehicle: saline 101 % of control | dose: 300.0 mg/kg/injection, schedule: Q04DX003 (ip), vehicle: saline 88 % of control

CC[N+]12CC[N+](CC)(CC1)C2
inactive: [10] 103 % of control | [11] 101 % of control | [12] 91 % of control

CN(N=O)C(=O)NCc1c[nH]c(=O)[nH]c1=O
inactive: dose: 6.0 mg/kg/injection, schedule: Q01DX Z (ip), vehicle: carboxymethylcellulose (CMC) 106 % of control | dose: 12.0 mg/kg/injection, schedule: Q01DX Z (ip), vehicle: carboxymethylcellulose (CMC) 101 % of control | dose: 25.0 mg/kg/injection, schedule: Q01DX Z (ip), vehicle: carboxymethylcellulose (CMC) 100 % of control | dose: 50.0 mg/kg/injection, schedule: Q01DX Z (ip), vehicle: carboxymethylcellulose (CMC) 121 % of control

CP1(=O)CC2OC23CCCCC31 (stereo not drawn)
inactive: dose: 12.5 mg/kg/injection, schedule: Q01DX009 (ip), vehicle: saline 98 % of control | dose: 25.0 mg/kg/injection, schedule: Q01DX009 (ip), vehicle: saline 98 % of control | dose: 50.0 mg/kg/injection, schedule: Q01DX009 (ip), vehicle: saline 102 % of control | dose: 100.0 mg/kg/injection, schedule: Q01DX009 (ip), vehicle: other 109 % of control | dose: 100.0 mg/kg/injection, schedule: Q01DX009 (ip), vehicle: saline 89 % of control | dose: 200.0 mg/kg/injection, schedule: Q01DX009 (ip), vehicle: other 114 % of control

CC1(C)CCc2ccccc2C1
inactive: dose: 50.0 mg/kg/injection, schedule: Q01DX009 (ip), vehicle: saline with Tween-80 104 % of control | [5] 96 % of control

CC1=CC(=N\S(=O)(=O)c2ccccc2)/C(=N/S(=O)(=O)c2ccccc2)C=C1
inactive: [13] 94 % of control | [14] 94 % of control | [15] 92 % of control

CCCCNC(=O)n1ncc2cc(Cl)ccc21
inactive: [10] 103 % of control | [11] 100 % of control | [12] 94 % of control

CSc1ccc(C2CCCCC2OS(C)(=O)=O)cc1 (stereo not drawn)
inactive: [2] 95 % of control | [3] 92 % of control | [4] 95 % of control

CC1CN=C(Cc2ccc(NC(=O)c3ccc(C(=O)Nc4ccc(CC5=NCC(C)N5)cc4)cc3)cc2)N1 (stereo not drawn)
inactive: dose: 3.75 mg/kg/injection, schedule: Q01DX Z (ip), vehicle: water 91 % of control | dose: 7.5 mg/kg/injection, schedule: Q01DX Z (ip), vehicle: water 101 % of control

O=S(=O)(CCCl)Cc1ccc(Cl)cc1
inactive: dose: 100.0 mg/kg/injection, schedule: Q04DX002 (ip), vehicle: Klucel (hydroxypropylcellulose) (HPC) 104 % of control | dose: 200.0 mg/kg/injection, schedule: Q04DX002 (ip), vehicle: Klucel (hydroxypropylcellulose) (HPC) 93 % of control

CCCOC(=O)CCl
inactive: [10] 113 % of control

Cc1ccc(C(c2ccc(C)cc2)C(Cl)(Cl)Cl)cc1
inactive: dose: 100.0 mg/kg/injection, schedule: Q01DX001 (ip), vehicle: saline sonified 93 % of control | dose: 200.0 mg/kg/injection, schedule: Q01DX001 (ip), vehicle: saline sonified 96 % of control | dose: 400.0 mg/kg/injection, schedule: Q01DX001 (ip), vehicle: saline sonified 88 % of control

C/C=C(/C(=O)c1ccc(-c2ccccc2)cc1)c1ccccc1
inactive: [5] 105 % of control | [13] 95 % of control | [6] 94 % of control | [14] 89 % of control | [7] 90 % of control | [15] 94 % of control

O=C1C=CCC2c3nc4ccccc4cc3CN12 (stereo not drawn)
inactive: dose: 37.5 mg/kg/injection, schedule: Q04DX003 (ip), vehicle: saline 95 % of control | [8] 93 % of control | [9] 95 % of control

O=C1NC(=S)S/C1=C\c1c(Cl)cccc1Cl
inactive: dose: 75.0 mg/kg/injection, schedule: Q01DX001 (ip), vehicle: other 97 % of control

O=[N+]([O-])c1cccs1
inactive: dose: 50.0 mg/kg/injection, schedule: Q01DX009 (ip), vehicle: Klucel (hydroxypropylcellulose) (HPC) 97 % of control | [1] 108 % of control | dose: 100.0 mg/kg/injection, schedule: Q04DX003 (ip), vehicle: other 104 % of control | dose: 200.0 mg/kg/injection, schedule: Q04DX003 (ip), vehicle: other 103 % of control

CCCCCCCCCCCCCCCC(=O)c1ccccc1
inactive: dose: 100.0 mg/kg/injection, schedule: Q01DX001 (ip), vehicle: Klucel (hydroxypropylcellulose) (HPC) 106 % of control | dose: 200.0 mg/kg/injection, schedule: Q01DX001 (ip), vehicle: Klucel (hydroxypropylcellulose) (HPC) 103 % of control | dose: 400.0 mg/kg/injection, schedule: Q01DX001 (ip), vehicle: Klucel (hydroxypropylcellulose) (HPC) 88 % of control

CCOC(=O)NNOC(=O)CC
inactive: dose: 100.0 mg/kg/injection, schedule: Q01DX001 (ip), vehicle: saline with Tween-80 92 % of control | dose: 200.0 mg/kg/injection, schedule: Q01DX001 (ip), vehicle: saline with Tween-80 95 % of control

CCCCC(=O)c1ccc(OC)c(C)c1
inactive: dose: 100.0 mg/kg/injection, schedule: Q01DX001 (ip), vehicle: carboxymethylcellulose (CMC) 101 % of control | dose: 200.0 mg/kg/injection, schedule: Q01DX001 (ip), vehicle: carboxymethylcellulose (CMC) 97 % of control | dose: 400.0 mg/kg/injection, schedule: Q01DX001 (ip), vehicle: carboxymethylcellulose (CMC) 103 % of control

O=C(OCCBr)c1ccccc1[N+](=O)[O-]
inactive: dose: 100.0 mg/kg/injection, schedule: Q04DX003 (ip), vehicle: saline 105 % of control | dose: 200.0 mg/kg/injection, schedule: Q04DX003 (ip), vehicle: saline 97 % of control | dose: 400.0 mg/kg/injection, schedule: Q04DX003 (ip), vehicle: saline 100 % of control

— PubChem BioAssay AID248 (DTP/NCI, 2004)
